# System: Mitochondria-located protein genes
# Assay: DNA chip mRNA expression in yeast, mitochondria-located protein genes (Table 2)
# Format: cell-based, Saccharomyces cerevisiae S288C
# Settings: cells incubated two hours with the chemical substance
# In short: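 Values are treated/untreated fluorescence ratios from a whole-genome yeast DNA chip hybridized over 12 hours at 65° C with Cy3- or Cy5-labelled cDNA from poly(A) mRNA. Log-phase S288C yeast in YPD at 25° C had received a single toxic chemical for two hours, dosed to slow growth without killing.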
smiles,measurement,setting,value
"Cl[C@H]1[C@H](Cl)[C@@H](Cl)[C@@H](Cl)[C@H](Cl)[C@H]1Cl [(7), γ-hexachlorocyclohexane]",The level of expressed mRNA in the presence of chemical substance/The level of expressed mRNA in the absence of chemical substance,yeast gene YAL039C,1.0
same,The level of expressed mRNA in the presence of chemical substance/The level of expressed mRNA in the absence of chemical substance,yeast gene YBL022C,1.0
same,The level of expressed mRNA in the presence of chemical substance/The level of expressed mRNA in the absence of chemical substance,yeast gene YBL030C,0.9
same,The level of expressed mRNA in the presence of chemical substance/The level of expressed mRNA in the absence of chemical substance,yeast gene YBL038W,8.0
same,The level of expressed mRNA in the presence of chemical substance/The level of expressed mRNA in the absence of chemical substance,yeast gene YBL099W,0.9
same,The level of expressed mRNA in the presence of chemical substance/The level of expressed mRNA in the absence of chemical substance,yeast gene YBR003W,1.1
same,The level of expressed mRNA in the presence of chemical substance/The level of expressed mRNA in the absence of chemical substance,yeast gene YBR044C,1.5
same,The level of expressed mRNA in the presence of chemical substance/The level of expressed mRNA in the absence of chemical substance,yeast gene YBR091C,1.0
same,The level of expressed mRNA in the presence of chemical substance/The level of expressed mRNA in the absence of chemical substance,yeast gene YBR122C,2.0
same,The level of expressed mRNA in the presence of chemical substance/The level of expressed mRNA in the absence of chemical substance,yeast gene YBR185C,1.2
same,The level of expressed mRNA in the presence of chemical substance/The level of expressed mRNA in the absence of chemical substance,yeast gene YBR221C,1.5
same,The level of expressed mRNA in the presence of chemical substance/The level of expressed mRNA in the absence of chemical substance,yeast gene YBR251W,1.4
same,The level of expressed mRNA in the presence of chemical substance/The level of expressed mRNA in the absence of chemical substance,yeast gene YBR282W,1.2
same,The level of expressed mRNA in the presence of chemical substance/The level of expressed mRNA in the absence of chemical substance,yeast gene YCL057W,1.4
same,The level of expressed mRNA in the presence of chemical substance/The level of expressed mRNA in the absence of chemical substance,yeast gene YCR046C,1.2
same,The level of expressed mRNA in the presence of chemical substance/The level of expressed mRNA in the absence of chemical substance,yeast gene YCR083W,1.8
same,The level of expressed mRNA in the presence of chemical substance/The level of expressed mRNA in the absence of chemical substance,yeast gene YDL067C,0.8
same,The level of expressed mRNA in the presence of chemical substance/The level of expressed mRNA in the absence of chemical substance,yeast gene YDL181W,1.1
same,The level of expressed mRNA in the presence of chemical substance/The level of expressed mRNA in the absence of chemical substance,yeast gene YDL198C,1.0
same,The level of expressed mRNA in the presence of chemical substance/The level of expressed mRNA in the absence of chemical substance,yeast gene YDR079W,1.3
same,The level of expressed mRNA in the presence of chemical substance/The level of expressed mRNA in the absence of chemical substance,yeast gene YDR178W,0.6
same,The level of expressed mRNA in the presence of chemical substance/The level of expressed mRNA in the absence of chemical substance,yeast gene YDR231C,1.7
same,The level of expressed mRNA in the presence of chemical substance/The level of expressed mRNA in the absence of chemical substance,yeast gene YDR258C,3.9
same,The level of expressed mRNA in the presence of chemical substance/The level of expressed mRNA in the absence of chemical substance,yeast gene YDR298C,1.0
same,The level of expressed mRNA in the presence of chemical substance/The level of expressed mRNA in the absence of chemical substance,yeast gene YDR347W,1.2
same,The level of expressed mRNA in the presence of chemical substance/The level of expressed mRNA in the absence of chemical substance,yeast gene YDR377W,1.1
same,The level of expressed mRNA in the presence of chemical substance/The level of expressed mRNA in the absence of chemical substance,yeast gene YDR529C,0.5
same,The level of expressed mRNA in the presence of chemical substance/The level of expressed mRNA in the absence of chemical substance,yeast gene YEL024W,0.7
same,The level of expressed mRNA in the presence of chemical substance/The level of expressed mRNA in the absence of chemical substance,yeast gene YEL039C,0.6
same,The level of expressed mRNA in the presence of chemical substance/The level of expressed mRNA in the absence of chemical substance,yeast gene YER178W,1.6
same,The level of expressed mRNA in the presence of chemical substance/The level of expressed mRNA in the absence of chemical substance,yeast gene YFL016C,1.4
same,The level of expressed mRNA in the presence of chemical substance/The level of expressed mRNA in the absence of chemical substance,yeast gene YGL018C,1.1
same,The level of expressed mRNA in the presence of chemical substance/The level of expressed mRNA in the absence of chemical substance,yeast gene YGL187C,0.6
same,The level of expressed mRNA in the presence of chemical substance/The level of expressed mRNA in the absence of chemical substance,yeast gene YGL191W,1.0
same,The level of expressed mRNA in the presence of chemical substance/The level of expressed mRNA in the absence of chemical substance,yeast gene YGR008C,3.7
same,The level of expressed mRNA in the presence of chemical substance/The level of expressed mRNA in the absence of chemical substance,yeast gene YGR028W,2.1
same,The level of expressed mRNA in the presence of chemical substance/The level of expressed mRNA in the absence of chemical substance,yeast gene YGR062C,1.3
same,The level of expressed mRNA in the presence of chemical substance/The level of expressed mRNA in the absence of chemical substance,yeast gene YGR076C,1.7
same,The level of expressed mRNA in the presence of chemical substance/The level of expressed mRNA in the absence of chemical substance,yeast gene YGR082W,0.9
same,The level of expressed mRNA in the presence of chemical substance/The level of expressed mRNA in the absence of chemical substance,yeast gene YGR174C,1.0
same,The level of expressed mRNA in the presence of chemical substance/The level of expressed mRNA in the absence of chemical substance,yeast gene YGR244C,3.9
same,The level of expressed mRNA in the presence of chemical substance/The level of expressed mRNA in the absence of chemical substance,yeast gene YHR008C,0.7
same,The level of expressed mRNA in the presence of chemical substance/The level of expressed mRNA in the absence of chemical substance,yeast gene YIL155C,2.2
same,The level of expressed mRNA in the presence of chemical substance/The level of expressed mRNA in the absence of chemical substance,yeast gene YJL096W,1.7
same,The level of expressed mRNA in the presence of chemical substance/The level of expressed mRNA in the absence of chemical substance,yeast gene YJL102W,0.6
same,The level of expressed mRNA in the presence of chemical substance/The level of expressed mRNA in the absence of chemical substance,yeast gene YJL133W,0.5
same,The level of expressed mRNA in the presence of chemical substance/The level of expressed mRNA in the absence of chemical substance,yeast gene YJL166W,0.8
same,The level of expressed mRNA in the presence of chemical substance/The level of expressed mRNA in the absence of chemical substance,yeast gene YJL180C,1.6
same,The level of expressed mRNA in the presence of chemical substance/The level of expressed mRNA in the absence of chemical substance,yeast gene YJR045C,1.0
same,The level of expressed mRNA in the presence of chemical substance/The level of expressed mRNA in the absence of chemical substance,yeast gene YJR077C,0.7
